# Reference: ChEMBL document CHEMBL1201862, “PubChem BioAssay data set” (2004)
#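 How tested: cells in 96-well plates exposed to compound for 48 hours at five concentrations. At the GI50, growth is halved.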 Activity calls are given as the source filed them. No stated cut-off is given here; in the data, active = GI50 up to about 1.1 µM and inactive = higher.
# Tests used:
# Experiment in all cases: NCI tumour cell line growth inhibition, 48 h
# UO-31 = test system: UO-31
# HL-60 = test system: HL-60
# OVCAR-8 = test system: OVCAR-8
# TK-10 = test system: TK-10
# Malme-3M = test system: Malme-3M
# A549 = test system: A549
# SF-295 = test system: SF-295
# SK-MEL-2 = test system: SK-MEL-2
# UACC-257 = test system: UACC-257
# MCF7 = test system: MCF7
# NCI/ADR-RES = test system: NCI/ADR-RES
# PC-3 = test system: PC-3
# CCRF-CEM = test system: CCRF-CEM
# IGROV-1 = test system: IGROV-1
# SK-OV-3 = test system: SK-OV-3
# HCC 2998 = test system: HCC 2998
# Hs-578T = test system: Hs-578T
# RPMI-8226 = test system: RPMI-8226
# COLO 205 = test system: COLO 205
# OVCAR-4 = test system: OVCAR-4
SMILES,GI50 (UO-31),GI50 (HL-60),GI50 (OVCAR-8),GI50 (TK-10),GI50 (Malme-3M),GI50 (A549),GI50 (SF-295),GI50 (SK-MEL-2),GI50 (UACC-257),GI50 (MCF7),GI50 (NCI/ADR-RES),GI50 (PC-3),GI50 (CCRF-CEM),GI50 (IGROV-1),GI50 (SK-OV-3),GI50 (HCC 2998),GI50 (Hs-578T),GI50 (RPMI-8226),GI50 (COLO 205),GI50 (OVCAR-4)
O=C1Nc2ccccc2/C1=N/NC(=O)C(O)(c1ccccc1)c1ccccc1,15.6 µM (inactive),17.4 µM (inactive),24.7 µM (inactive),28.8 µM (inactive),20.7 µM (inactive),17.1 µM (inactive),18.8 µM (inactive),17 µM (inactive),22 µM (inactive),22.4 µM (inactive),23.9 µM (inactive),16.6 µM (inactive),26.1 µM (inactive),19.6 µM (inactive),22.9 µM (inactive),14.6 µM (inactive),25.6 µM (inactive),19.6 µM (inactive),18 µM (inactive),24.2 µM (inactive)
CCCCOC(=O)C1CN2C=CC=NC2=NC1(C(F)(F)F)C(F)(F)F (centres undefined),> 100 µM (inactive),> 100 µM (inactive),> 100 µM (inactive),> 100 µM (inactive),> 100 µM (inactive),> 100 µM (inactive),> 100 µM (inactive),> 100 µM (inactive),> 100 µM (inactive),> 100 µM (inactive),> 100 µM (inactive),> 100 µM (inactive),> 100 µM (inactive),> 100 µM (inactive),> 100 µM (inactive),> 100 µM (inactive),> 100 µM (inactive),> 100 µM (inactive),> 100 µM (inactive),> 100 µM (inactive)
COc1ccc2c(c1)-c1c(c3cc(OC)ccc3n1CCCN(C)C)CC2,10.8 µM (inactive),15.3 µM (inactive),13.7 µM (inactive),16.5 µM (inactive),2.28 µM (inactive),12.1 µM (inactive),2.62 µM (inactive),15.8 µM (inactive),3.48 µM (inactive),7.83 µM (inactive),12.7 µM (inactive),10.3 µM (inactive),4.46 µM (inactive),2.93 µM (inactive),16.2 µM (inactive),3.13 µM (inactive),4.29 µM (inactive),5.24 µM (inactive),2.02 µM (inactive),11 µM (inactive)
O=C(O)COc1cc(-c2ccccc2)nc2cc(F)ccc12,64.7 µM (inactive),> 100 µM (inactive),> 100 µM (inactive),0.375 µM (active),> 100 µM (inactive),> 100 µM (inactive),> 100 µM (inactive),> 100 µM (inactive),> 100 µM (inactive),> 100 µM (inactive),> 100 µM (inactive),> 100 µM (inactive),> 100 µM (inactive),> 100 µM (inactive),> 100 µM (inactive),60 µM (inactive),> 100 µM (inactive),> 100 µM (inactive),> 100 µM (inactive),> 100 µM (inactive)
CN(C)/C=C(\C(=O)c1ccccc1)n1nc(-c2ccccc2)cc1-c1ccccc1,,> 10 µM (inactive),> 10 µM (inactive),> 10 µM (inactive),> 10 µM (inactive),> 10 µM (inactive),> 10 µM (inactive),> 10 µM (inactive),> 10 µM (inactive),> 10 µM (inactive),> 10 µM (inactive),> 10 µM (inactive),> 10 µM (inactive),> 10 µM (inactive),> 10 µM (inactive),> 10 µM (inactive),> 10 µM (inactive),> 10 µM (inactive),> 10 µM (inactive),> 10 µM (inactive)
CC(C)(C(=O)N(C(=O)N1CCN(c2ccccc2)CC1)S(=O)(=O)c1ccccc1)c1ccc(Cl)cc1,15.3 µM (inactive),24.8 µM (inactive),16.6 µM (inactive),61.4 µM (inactive),90.4 µM (inactive),33.7 µM (inactive),8.63 µM (inactive),21.3 µM (inactive),46.7 µM (inactive),4.33 µM (inactive),6.92 µM (inactive),12.6 µM (inactive),3.94 µM (inactive),,24 µM (inactive),27.7 µM (inactive),39.1 µM (inactive),6.95 µM (inactive),20.7 µM (inactive),28.1 µM (inactive)
COC(=O)CCc1ccc(CCC(=O)OC)cc1,> 100 µM (inactive),> 100 µM (inactive),> 100 µM (inactive),> 100 µM (inactive),> 100 µM (inactive),> 100 µM (inactive),> 100 µM (inactive),> 100 µM (inactive),> 100 µM (inactive),> 100 µM (inactive),> 100 µM (inactive),> 100 µM (inactive),> 100 µM (inactive),> 100 µM (inactive),> 100 µM (inactive),> 100 µM (inactive),> 100 µM (inactive),> 100 µM (inactive),,> 100 µM (inactive)
CC(C)CN1CN(c2ccccc2)C2(CCN(CC(C)(c3ccc(F)cc3)C3OCCO3)CC2)C1=O (centres undefined),2.7 µM (inactive),2.68 µM (inactive),10.1 µM (inactive),10.8 µM (inactive),4.89 µM (inactive),5.09 µM (inactive),3.87 µM (inactive),2.89 µM (inactive),3.04 µM (inactive),4.11 µM (inactive),7.41 µM (inactive),3.55 µM (inactive),3.55 µM (inactive),,3.89 µM (inactive),2.39 µM (inactive),3.66 µM (inactive),1.94 µM (inactive),1.65 µM (inactive),5.6 µM (inactive)
Cc1c2ccccc2c(C)n2c1nc1cc3ccccc3cc12,,2.5 µM (inactive),1.04 µM (active),2.15 µM (inactive),1.28 µM (inactive),1.86 µM (inactive),1.06 µM (active),1.61 µM (inactive),3.3 µM (inactive),0.321 µM (active),0.897 µM (active),1.27 µM (inactive),1.57 µM (inactive),1.04 µM (active),2.45 µM (inactive),1.78 µM (inactive),1.25 µM (inactive),2.2 µM (inactive),1.34 µM (inactive),1.56 µM (inactive)
C=C(Cl)C(C)(Cl)CCC(Cl)C(C)C (centres undefined),> 100 µM (inactive),44.3 µM (inactive),,> 100 µM (inactive),> 100 µM (inactive),> 100 µM (inactive),> 100 µM (inactive),> 100 µM (inactive),> 100 µM (inactive),> 100 µM (inactive),> 100 µM (inactive),> 100 µM (inactive),38.7 µM (inactive),> 100 µM (inactive),29.6 µM (inactive),> 100 µM (inactive),> 100 µM (inactive),48.6 µM (inactive),> 100 µM (inactive),> 100 µM (inactive)
